Experimental findings from patent US20100210649A1, “PYRIDAZINONES AND FURAN-CONTAINING COMPOUNDS” (Sloan-Kettering Institute for Cancer Research, priority 2006, published 2010) are described below.

“And” between values parts separate entries of the source, which are not always exact repeats. Identical values can stand only once. Like-named read-outs stand apart in the source and are kept apart here.

For one series, the system named is H3255. In words: Non Small Cell Lung Cancer proliferation assay (Alamar Blue reduction), H3255. The class given is cell-based, human. The conditions noted are these: for inhibition at 10 µM / IC50: Homo sapiens; for inhibition at 10 µM: NCI-H3255, primary screening, H3255, read-out: PRIMARY HTS [%] H3255 (percentage inhibition); for inhibition at 10 µM / CONFIRMATION [%] 3255: 10 μM compound in 1% DMSO (v/v); for CONFIRMATION [%] 3255: percentage inhibition. The gist of the method: (§1)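 Compounds are tested at 1% DMSO final concentration against adherent NSCLC cells for 48 h at 37° C, with cytotoxicity measured by Alamar Blue reduction after a further 48 h incubation.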

Another series has as its system H2030. In words: Non Small Cell Lung Cancer proliferation assay (Alamar Blue reduction), H2030. Format: cell-based, human. The conditions noted are these: for inhibition at 10 µM / IC50: Homo sapiens; for inhibition at 10 µM: NCI-H2030, primary screening, H2030, read-out: PRIMARY HTS [%] H2030 (percentage inhibition); for inhibition at 10 µM / CONFIRMATION [%] 2030: 10 μM compound in 1% DMSO (v/v); for CONFIRMATION [%] 2030: percentage inhibition. The essentials: as §1
For orientation: Alamar Blue is a resazurin reagent that responds to reducing activity.

Another series relates to H1975. Briefly: Non Small Cell Lung Cancer proliferation assay (Alamar Blue reduction), H1975. The class given is cell-based, human. The conditions noted are these: for inhibition at 10 µM / IC50: Homo sapiens; for inhibition at 10 µM: NCI-H1975, primary screening, H1975, read-out: PRIMARY HTS [%] H1975 (percentage inhibition); for inhibition at 10 µM / CONFIRMATION [%] 1975: 10 μM compound in 1% DMSO (v/v); for CONFIRMATION [%] 1975: percentage inhibition. The essentials:
as §1

In series [1] the test system is NHBE (normal human bronchiolar epithelial cells). In words: cells. The settings on record: Homo sapiens, NHBE, read-out: IC50(uM) NHBE, phenylfuran-2-carboxamide SAR summary. As to the method: (§2) NHBE (normal human bronchiolar epithelial cells) are primary cells obtained from donor lungs and commercially available from Cambrex. The HPL1D (human peripheral lung epithelial) cell line has been immortalized with the SV40 large T-antigen. WI-38: human lung fibroblast cell line. HPLID, NHBE and WI-38 cells will serve as controls in the chemical screens. WT: wildtype; WT*: over-expressed wildtype.
(§3) Compounds were tested in dose response studies from […] to 5 nM against several non small cell lung cancer lines: H358, H827, H1118, H1650, H1734, H1975, H2030, and H3255, and were also studied in a 72 hour cytotoxicity assay against the NHBE and WI-38 cell lines.

Another series concerns H1650. In words: Non Small Cell Lung Cancer proliferation assay (Alamar Blue reduction), H1650. Format: cell-based, human. The conditions noted are these: for inhibition at 10 µM: NCI-H1650, primary screening, H1650, read-out: PRIMARY HTS [%] H1650 (percentage inhibition); for inhibition at 10 µM / CONFIRMATION [%] 1650: 10 μM compound in 1% DMSO (v/v); for CONFIRMATION [%] 1650: percentage inhibition. The essentials:
as §1

The subject of a further series is H827. In words: Non Small Cell Lung Cancer proliferation assay (Alamar Blue reduction), H827. Format: cell-based. The settings on record: Homo sapiens; read-out: Dose Response (uM) H827. As to the method: […] are grown and maintained in Corning 175 cm2 flasks in RPMI 1640 media supplemented with 10% FBS, 1% antibiotic solution, 1% additional glutamine and pyruvate. These cells have a doubling time of 1-2 days. All cell types are adherent and grow in colonies. The cells should be kept at a density between 50,000 cells/mL -500,000 cells/mL to provide for optimum growth and adequate nutrition. The cell line should be maintained at 37° C. in a humidified atmosphere with 5% CO2 in a sterile cell culture incubator.
(§4) Non Small Cell Lung Cancer Proliferation Assay. To perform the assay, the Non Small Cell Lung Cancer lines are diluted in media and plated into 384 well microplates at a final density of 250 cells in […]. To ensure consistency and minimal pipetting error, the cells are plated using the Multidrop 384 with the following settings: Rocker Switch set at 384, Volume 45 and Column 24.
(§5) Low Controls for this assay are made by treating Non Small Cell Lung Cancer cells with 5 ul of staurosporine at 250 uM in 10% DMSO and 1% SDS. [Final concentration in this assay is 25 uM staurosporine in 1% DMSO and 0.1% SDS.]
(§6) High Controls for this assay are made by treating Non Small Cell Lung Cancer cells with 5 ul of 10% DMSO. [Final concentration in this assay is 1% DMSO].
(§7) The remaining wells of the 384 microplate may be treated with different compounds depending on the study. Important Note: All compounds for testing in this assay should be done at the final concentration of 1% DMSO.
(§8) After addition, the cells are placed in cell culture incubator at 37° C. for 48 hours for complete treatment.
(§9) After drug treatment, cytotoxicity is measured by Alamar Blue reduction. 5 μL of Alamar Blue is added to the 384 microplates using the Flexdrop.
(§10) The cells are incubated for 48 hours at 37° C. to complete the Alamar Blue reduction.
(§11) The final step in the assay is to measure the amount of Alamar Blue reduction. […] The Alamar Blue fluorescence is measured at an excitation of 530 nm and emission of 590 nm.
(§12) For the NSCLC project, the cell based assay was screened against a small molecule library of approximately 200,000 compounds. The compound library is stored in our automated robotic freezer (Biophile) at −20° C. in 100% DMSO. Compound freeze and thaw cycles are kept to a minimum. Compounds for use are diluted into the appropriate concentration and plated into 384 well microplates using our custom built low volume 384-well head tool (TPS 384, Apricot Designs Inc., CA, USA). This assay was performed on a fully automated linear track robotic platform (CRS F3 Robot System, Thermo Electron Corp., Ontario, Canada) utilizing several integrated peripherals for plate handling, liquid dispensing, and readout detection. First, non-small cell lung cancer cell lines are dispensed into 384 well microplates (Corning #3712 Tissue Culture Treated Plate, Corning, N.Y., USA) with 5 μL of test compounds at 100 uM in 10% DMSO for screening studies or 1 mM in 10% DMSO to 50 nM in 10% DMSO for dose response studies. The microplates are then placed at 37° C. for 48 hours to complete treatment of cells with compounds. Next, 5 ul of alamar blue was added using a liquid dispenser (Flexprop Precision Dispenser, Perkin Elmer, Mass., USA) and incubated for 48 hours at 37° C. The alamar blue prompt fluorescence was measured on Victor V (Victor^3 V, Perkin Elmer, Mass., USA) and output data files were loaded into ORIS (Oncology Research Informatics System, MSKCC, NY, USA), a screening data acquisition and analysis platform.

The test system of a further series is H1734. Briefly: Non Small Cell Lung Cancer proliferation assay (Alamar Blue reduction), H1734. The class given is cell-based, human. The settings on record: Homo sapiens, NCI-H1734; read-out: Dose Response (uM) H1734. As to the method:
(§13) These cells have a doubling time of 1-2 days. All cell types are adherent and grow in colonies. The cells should be kept at a density between 50,000 cells/mL -500,000 cells/mL to provide for optimum growth and adequate nutrition. The cell line should be maintained at 37° C. in a humidified atmosphere with 5% CO2 in a sterile cell culture incubator.
(§14) Non Small Cell Lung Cancer Proliferation Assay.
as §6
(§15) Important Note: All compounds for testing in this assay should be done at the final concentration of 1% DMSO.
as §8
(§16) After drug treatment, cytotoxicity is measured by Alamar Blue reduction.
as §10, §11
as §12, with “Compounds for use are diluted into the appropriate concentration and plated into 384 well microplates using our custom built low volume 384-well head tool (TPS 384, Apricot Designs Inc., CA, USA).” left out, “First, non-small cell lung cancer cell lines are dispensed into 384 well microplates (Corning #3712 Tissue Culture Treated Plate, Corning, N.Y., USA) with 5 μL of test compounds at 100 uM in 10% DMSO for screening studies or 1 mM in 10% DMSO to 50 nM in 10% DMSO for dose response studies.” left out
(§17) The dose response studies were done with the following standard procedure. First, the cells were counted and dispensed at 250 cells/well into 384-well microplates with compound. The cells were incubated for 48 hours at 37 C to complete treatment, and then alamar blue was added for an additional 48 hours. Finally, alamar blue reduction was measured and the data was loaded into ORIS, our data screening acquisition platform.

A short description of the next series: in vitro. The conditions noted are these: human. As to the method:
as §2, §3

The subject of the next series is H358. Briefly: Non Small Cell Lung Cancer proliferation assay (Alamar Blue reduction), H358. Format: cell-based. The conditions noted are these: Homo sapiens, NCI-H358; read-out: Dose Response (uM) H358. As to the method: as §13, §14, §6, §15, §8, §16, §10, §11
as §12, with “Compounds for use are diluted into the appropriate concentration and plated into 384 well microplates using our custom built low volume 384-well head tool (TPS 384, Apricot Designs Inc., CA, USA).” left out, “First, non-small cell lung cancer cell lines are dispensed into 384 well microplates (Corning #3712 Tissue Culture Treated Plate, Corning, N.Y., USA) with 5 μL of test compounds at 100 uM in 10% DMSO for screening studies or 1 mM in 10% DMSO to 50 nM in 10% DMSO for dose response studies.” left out
as §17

The next series has as its system H1118. Briefly: Non Small Cell Lung Cancer proliferation assay (Alamar Blue reduction), H1118. The settings on record: Homo sapiens; read-out: Dose Response (uM) H1118. The class given is cell-based. As to the method:
as §4, §5, §6, §7, §8, §9, §10, §11, §12, §17

Where [2] appears, read: Homo sapiens, NCI-H1650, phenylfuran-2-carboxamide SAR summary, read-out: IC50(uM) 1650.
The mark [3] stands for this setting: NCI-H3255, dose response 10 M to 5 nM, IC50, read-out: Dose Response (uM) H3255.
Where [4] appears, read: NCI-H2030, dose response 10 M to 5 nM, IC50, read-out: Dose Response (uM) H2030.
[5] abbreviates: NCI-H1975, dose response 10 M to 5 nM, IC50, read-out: Dose Response (uM) H1975.
Where [6] appears, read: Homo sapiens, NCI-H1650, dose response 10 M to 5 nM, IC50, read-out: Dose Response (uM) H1650.

The term inhibition denotes the relative decrease from the control value, in per cent.

Consider `O=C(Nc1ccc(Cl)cc1C(F)(F)F)c1ccc([N+](=O)[O-])o1` [compound 64228], for which the inhibition at 10 µM is 91% in the series with H3255, 93% with H2030, 82% in the series with H1975 and 87% with H1650 (Homo sapiens). In addition, in the series on H3255, the “CONFIRMATION [%] 3255” value amounted to 97%. Moreover, in the series on H2030, the “CONFIRMATION [%] 2030” value is 90% and 105%. The “CONFIRMATION [%] 1975” value with H1975 is 70% and 97%. Moreover, the IC50 in series [1] stood at 13.2 µM; in the series on H1650 (setting [2]), 1.6 µM; with H1650 (phenylfuran-2-carboxamide SAR summary, read-out: IC50(uM) 1650) it was 2.31 µM. Also, the “CONFIRMATION [%] 1650” value in the series with H1650 is 111% and 107%.
Consider `O=c1c(Br)c(SCc2ccccc2)cnn1-c1ccccc1` [compound 257021], for which the IC50 in the series with H3255 (setting [3]), in the series on H2030 (setting [4]), with H827, with H1975 (setting [5]), with H1734 and in the series with H358 was above 10 µM each time. Further, the IC50 with H1650 (setting [6]) and with H1118 was above 10 µM each time. Besides, the IC50 at 72 h in the series “in vitro” (CytoTox (uM) NHBE) and in the series “in vitro” (CytoTox (uM) WI-38) was above 10 µM throughout.
Consider `N/N=C1\C=NN(c2ccccc2)C(=O)C1Cl` (stereo not drawn) [compound 257023], for which the IC50 in the series with H3255 (setting [3]), in the series with H2030 (setting [4]), with H827, with H1975 (setting [5]), in the series on H1734 and with H358 was above 10 µM in each case. Besides, the IC50 in the series with H1650 (setting [6]) and with H1118 was above 10 µM each time. Besides, the IC50 at 72 h in the series “in vitro” (CytoTox (uM) NHBE) and in “in vitro” (CytoTox (uM) WI-38) was above 10 µM each time.
`O=c1c(Cl)c(SCc2ccccc2)cnn1-c1ccccc1` [compound 257022]: the IC50 in the series on H3255 (setting [3]), in the series with H2030 (setting [4]), in the series with H827, with H1975 (setting [5]), with H1734 and with H358 was above 10 µM throughout. For the same compound, the IC50 with H1650 (setting [6]) and with H1118 was above 10 µM each time. Further, the IC50 at 72 h in the series “in vitro” (CytoTox (uM) NHBE) and in the series “in vitro” (CytoTox (uM) WI-38) was above 10 µM each time.
As for `O=C(NC1CCCCC1)c1ccc([N+](=O)[O-])o1` [compound 71763], the IC50 is 2.98 µM in the series on H3255 (NCI-H3255, phenylfuran-2-carboxamide SAR summary, read-out: IC50(uM) 3255); 3.79 µM in the series on H2030 (NCI-H2030, phenylfuran-2-carboxamide SAR summary, read-out: IC50(uM) 2030); 3.54 µM with H1975 (NCI-H1975, phenylfuran-2-carboxamide SAR summary, read-out: IC50(uM) 1975); 24.9 µM in series [1]; 1.39 µM in the series with H1650 (setting [2]). Moreover, the inhibition at 10 µM in the series on H3255 amounted to 77%; in the series with H2030, 82%; in the series with H1975 it was 61%; in the series on H1650 (Homo sapiens) it was 87%. In addition, the “CONFIRMATION [%] 3255” value in the series with H3255 came out at 135%. Also, the “CONFIRMATION [%] 2030” value in the series on H2030 stood at 97%. Further, the “CONFIRMATION [%] 1975” value in the series on H1975 is given as 74%. In the series on H1650, the “CONFIRMATION [%] 1650” value is reported as 136%.
